# Results taken from patent publication US6337334B1, “Pyrimidine derivatives” (Kowa Co., Ltd., priority 1994, dated 2002).
# Structures can show the parent of a compound that is named as a salt.
# Tests used:
# ETA receptor = target: T1, ETA receptor (Sus scrofa, UniProt Q29010); test: Endothelin binding inhibition experiment, 125I-endothelin-1 binding assay, ETA receptor membrane samples from smooth muscles of porcine thoracic aorta; settings: 125I-endothelin-1 2×10^−11 M, porcine thoracic aorta membranes, 2 hours at 25° C.
# T1 construct: Porcine thoracic aorta which was separated from the fatty tissue and then was removed endothelium with gauze was minced, and then homogenized; from tissue; host or cells: porcine thoracic aorta smooth muscle membranes
# T1 sequence (Q29010 21-427): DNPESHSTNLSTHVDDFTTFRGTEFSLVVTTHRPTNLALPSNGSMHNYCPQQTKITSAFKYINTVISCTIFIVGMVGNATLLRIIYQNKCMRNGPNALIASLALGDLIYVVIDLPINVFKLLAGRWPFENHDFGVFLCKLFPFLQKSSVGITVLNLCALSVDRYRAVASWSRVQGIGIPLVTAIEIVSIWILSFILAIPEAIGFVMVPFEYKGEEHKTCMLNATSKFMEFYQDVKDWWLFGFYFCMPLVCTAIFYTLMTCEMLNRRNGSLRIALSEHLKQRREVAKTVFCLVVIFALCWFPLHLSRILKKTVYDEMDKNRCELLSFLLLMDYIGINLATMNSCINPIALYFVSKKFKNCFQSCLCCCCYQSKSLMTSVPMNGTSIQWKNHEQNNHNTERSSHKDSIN
# Protocol: (§1) Endothelin Binding Inhibition Experiment
# Preparation of receptor membrane samples (ETA) from smooth muscles of porcine thoracic aorta:
# Porcine thoracic aorta which was separated from the fatty tissue and then was removed endothelium with gauze was minced, and then homogenized in three times the volume of Tris-HCl buffer (pH 7.4) (buffer A) containing 0.25 M sucrose, 3 mM ethylenediaminetetraacetic acid, 5 μg/ml of aprotinin, 10 μg/ml of pepstatin A, 10 μg/ml of leupeptin, and 0.1 μM p-amidinophenyl-methanesulfonyl fluoride. After centrifugation for 30 minutes at 1,000×g, the supernatant was further centrifuged for 30 minutes at 100,000×g. The pellets were suspended in buffer A, and recentrifuged for 30 minutes at 100,000×g. The pellets were suspended in buffer A and the suspension was stored at −80° C.
# ^125I-Endothelin-1 Binding Assay
# The thus-obtained membrane sample (1 μl) was incubated together with ^125I-endothelin-1 (2×10^−11 M) and various concentrations of the compounds, for 2 hours at 25° C., in 250 μl in total volume of 50 mM Tris-HCl buffer (pH 7.4) containing 0.5% bovine serum albumin. The incubated mixture was filtered by use of an HVPP filters (pore size 0.45 μm, product of Milipore). The filters were washed with cold buffer A four times, and then measured with a gamma-ray counter (Aroka Autowell Gamma System ARC-251). Preparation of receptor membrane sample (ETB) from rat brain and assay of ^125I endothelin-1: […]
# ETB receptor = target: T2, ETB receptor (Rattus norvegicus, UniProt P21451); test: Endothelin binding inhibition experiment, 125I-endothelin-1 binding assay, ETB receptor membrane sample from rat brain; settings: 125I-endothelin-1, rat brain membranes
# T2 construct: Rat brain tissue was minced, and a crude receptor membrane sample was prepared; from tissue; host or cells: rat brain crude membranes
# T2 sequence (P21451 27-442): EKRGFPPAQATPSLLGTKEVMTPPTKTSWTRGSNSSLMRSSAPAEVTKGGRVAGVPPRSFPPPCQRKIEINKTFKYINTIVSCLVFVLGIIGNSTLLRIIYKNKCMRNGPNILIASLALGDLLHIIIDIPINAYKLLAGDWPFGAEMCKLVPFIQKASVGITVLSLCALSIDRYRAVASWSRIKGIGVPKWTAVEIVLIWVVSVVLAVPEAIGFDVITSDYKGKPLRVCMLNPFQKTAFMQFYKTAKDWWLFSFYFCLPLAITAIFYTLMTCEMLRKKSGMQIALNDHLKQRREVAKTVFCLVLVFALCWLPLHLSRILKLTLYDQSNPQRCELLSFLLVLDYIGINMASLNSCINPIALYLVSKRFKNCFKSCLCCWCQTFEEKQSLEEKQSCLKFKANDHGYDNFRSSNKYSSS
# Protocol: as §1
# The thus-obtained membrane sample (1 μl) was incubated together with ^125I-endothelin-1 (2×10^−11 M) and various concentrations of the compounds, for 2 hours at 25° C., in 250 μl in total volume of 50 mM Tris-HCl buffer (pH 7.4) containing 0.5% bovine serum albumin. The incubated mixture was filtered by use of an HVPP filters (pore size 0.45 μm, product of Milipore). The filters were washed with cold buffer A four times, and then measured with a gamma-ray counter (Aroka Autowell Gamma System ARC-251). Preparation of receptor membrane sample (ETB) from rat brain and assay of ^125I endothelin-1:
# Rat brain tissue was minced, and a crude receptor membrane sample was prepared in a manner similar to that used in the aforementioned case of porcine thoracic aorta. Also, ^125I-endothelin-1 assay was performed in the same manner as described above.
Compound,IC50 (ETA receptor) [µM],IC50 (ETB receptor) [µM],melting point [°C]
"COc1ccccc1Oc1c(NS(=O)(=O)c2ccc(C(C)(C)C)cc2)nc(-c2ncccn2)nc1OCCC(=O)Nc1ccccc1C(C)C [Compound No. 53, N-(2-isopropylphenyl)-3-[6-(4-t-butylphenylsulfonylamino)-5-(2-methoxyphenoxy)-2-(2-pyrimidinyl)-4-pyrimidinyloxy]propionamide]",0.098,0.00082,
"COc1ccccc1Oc1c(NS(=O)(=O)c2ccc(C(C)(C)C)cc2)nc(-c2ncccn2)nc1OCCCC(=O)Nc1ccccc1 [Compound No. 25, N-phenyl-4-[6-(4-t-butylphenylsulfonylamino)-5-(2-methoxyphenoxy)-2-(2-pyrimidinyl)-4-pyrimidinyloxy]butyramide]",1.9,0.037,
"COc1ccccc1Oc1c(NS(=O)(=O)c2ccc(C(C)(C)C)cc2)nc(-c2ncccn2)nc1OCC(=O)NCc1ccccc1 [Compound No. 15, N-benzyl-[6-(4-t-butylphenylsulfonylamino)-5-(2-methoxyphenoxy)-2-(2-pyrimidinyl)-4-pyrimidinyloxy]acetamide]",3.2,0.016,
"COc1ccccc1CNC(=O)CCOc1nc(-c2ncccn2)nc(NS(=O)(=O)c2ccc(C(C)(C)C)cc2)c1Oc1ccccc1OC (as salt: sodium) [Compound No. 34, N-(2-methoxybenzyl)-3-[6-(4-t-butylphenylsulfonylamino)-5-(2-methoxyphenoxy)-2-(2-pyrimidinyl)-4-pyrimidinyloxy]propionamide]",,,138 to 139
N-(2-chlorophenethyl)-4-[6-(4-t-butylphenylsulfonylamino)-5-(2-methoxyphenoxy)-2-(2-pyrimidinyl)-4-pyrimidinyloxy]-butylamide [Compound No. 38],16.9,0.019,
"COc1ccccc1CNC(=O)CCOc1nc(-c2ncccn2)nc(NS(=O)(=O)c2ccc(C(C)(C)C)cc2)c1Oc1ccccc1OC [Compound No. 34, N-(2-methoxybenzyl)-3-[6-(4-t-butylphenylsulfonylamino)-5-(2-methoxyphenoxy)-2-(2-pyrimidinyl)-4-pyrimidinyloxy]propionamide]",0.39,0.22,
"COc1ccccc1Oc1c(NS(=O)(=O)c2ccc(C(C)(C)C)cc2)nc(-c2ncccn2)nc1OCC(=O)OCc1ccccc1 [Compound No. 10, benzyl [6-(4-t-butylphenylsulfonylamino)-5-(2-methoxyphenoxy)-2-(2-pyrimidinyl)-4-pyrimidinyloxy]acetate]",0.51,0.65,
"COc1ccccc1Oc1c(NS(=O)(=O)c2ccc(C(C)(C)C)cc2)nc(-c2ncccn2)nc1OCC(=O)Oc1cccc(Cl)c1 [Compound No. 12, 3-chlorophenyl [6-(4-t-butylphenylsulfonylamino)-5-(2-methoxyphenoxy)-2-(2-pyrimidinyl)-4-pyrimidinyloxy]acetate]",0.32,0.82,
"COc1ccccc1NC(=O)CCOc1nc(-c2ncccn2)nc(NS(=O)(=O)c2ccc(C(C)(C)C)cc2)c1Oc1ccccc1OC [Compound No. 48, N-(2-methoxyphenyl)-3-[6-(4-t-butylphenylsulfonylamino)-5-(2-methoxyphenoxy)-2-(2-pyrimidinyl)-4-pyrimidinyloxy]propionamide]",0.16,0.00075,
"COc1ccccc1NC(=O)CCOc1nc(-c2ncccn2)nc(NS(=O)(=O)c2ccc(C(C)(C)C)cc2)c1Oc1ccccc1OC (as salt: sodium) [Compound No. 48, N-(2-methoxyphenyl)-3-[6-(4-t-butylphenylsulfonylamino)-5-(2-methoxyphenoxy)-2-(2-pyrimidinyl)-4-pyrimidinyloxy]propionamide]",,,120 to 122
"COc1ccccc1Oc1c(NS(=O)(=O)c2ccc(C(C)(C)C)cc2)nc(-c2ncccn2)nc1OCCC(=O)NCc1ccccc1 [Compound No. 14, N-benzyl-3-[6-(4-t-butylphenylsulfonylamino)-5-(2-methoxyphenoxy)-2-(2-pyrimidinyl)-4-pyrimidinyloxy]-propionamide]",0.82,0.0028,
"COc1ccccc1NC(=O)CCCOc1nc(-c2ncccn2)nc(NS(=O)(=O)c2ccc(C(C)(C)C)cc2)c1Oc1ccccc1OC [Compound No. 29, N-(2-methoxyphenyl)-4-[6-(4-t-butylphenylsulfonylamino)-5-(2-methoxyphenoxy)-2-(2-pyrimidinyl)-4-pyrimidinyloxy]-butyramide]",3.1,0.03,

# More lines, now with the values ahead:
IC50 (ETA receptor) [µM],IC50 (ETB receptor) [µM],melting point [°C],Compound
0.0095,0.1,,"COc1ccccc1Oc1c(NS(=O)(=O)c2ccc(C(C)(C)C)cc2)nc(-c2ncccn2)nc1OCCC(=O)Nc1ccccn1 [Compound No. 92, N-(2-pyridyl)-3-[6-(4-t-butylphenylsulfonylamino)-5-(2-methoxyphenoxy)-2-(2-pyrimidinyl)-4-pyrimidinyloxy]-propionamide]"
,,142 to 144,"CCCCCNC(=O)CCOc1nc(-c2ncccn2)nc(NS(=O)(=O)c2ccc(C(C)(C)C)cc2)c1Oc1ccccc1OC (as salt: sodium) [Compound No. 43, N-(n-pentyl)-3-[6-(4-t-butylphenylsulfonylamino)-5-(2-methoxyphenoxy)-2-(2-pyrimidinyl)-4-pyrimidinyloxy]-propionamide]"
,,117 to 120,"CCNC(=O)CCOc1nc(-c2ncccn2)nc(NS(=O)(=O)c2ccc(C(C)(C)C)cc2)c1Oc1ccccc1OC (as salt: sodium) [Compound No. 49, N-ethyl-3-[6-(4-t-butylphenylsulfonylamino)-5-(2-methoxyphenoxy)-2-(2-pyrimidinyl)-4-pyrimidinyloxy]-propionamide]"
,,162 to 163,"COc1ccccc1Oc1c(NS(=O)(=O)c2ccc(C(C)(C)C)cc2)nc(-c2ncccn2)nc1OCCC(=O)Nc1ccccc1 (as salt: sodium) [Compound No. 18, N-phenyl-3-[6-(4-t-butylphenylsulfonylamino)-5-(2-methoxyphenoxy)-2-(2-pyrimidinyl)-4-pyrimidinyloxy]-propionamide]"
9.4,0.8,,"COc1ccccc1Oc1c(NS(=O)(=O)c2ccc(C(C)(C)C)cc2)nc(-c2ncccn2)nc1OCC(=O)O [Compound No. 2, [6-(4-t-butylphenyl-sulfonylamino)-5-(2-methoxyphenoxy)-2-(2-pyrimidinyl)-4-pyrimidinyloxy]acetic acid]"
0.15,0.023,,"COc1ccccc1Oc1c(NS(=O)(=O)c2ccc(C(C)(C)C)cc2)nc(-c2ncccn2)nc1OCCC(=O)Nc1ccccc1 [Compound No. 18, N-phenyl-3-[6-(4-t-butylphenylsulfonylamino)-5-(2-methoxyphenoxy)-2-(2-pyrimidinyl)-4-pyrimidinyloxy]-propionamide]"
0.72,2.9,,"CCOC(=O)CCOc1nc(-c2ncccn2)nc(NS(=O)(=O)c2ccc(C(C)(C)C)cc2)c1Oc1ccccc1OC [Compound No. 9, ethyl 3-[6-(4-t-butylphenylsulfonylamino)-5-(2-methoxyphenoxy)-2-(2-pyrimidinyl)-4-pyrimidinyloxy]propionate]"
